9 compounds from ChEMBL document CHEMBL1128880, “Design and synthesis of heterocyclic analogues of mycophenolic acid as potential chemotherapeutic agents” (Bioorg Med Chem Lett, 1995) can be followed below.

In one test the test system is HT-29. The test is described as follows: In vitro antitumor activity against HT-29 human colon adenocarcinoma cells. Format: functional, cell-based.
For a further test, the system named is MCF7. The test is described as follows: In vitro antitumor activity against MCF-7 human breast adenocarcinoma cells. Format: functional, cell-based.
The subject of another test is L1210. The test is described as follows: In vitro antitumor activity against L1210 murine lymphocytic leukemia cells. The conditions noted are these: Mus musculus. Format: functional, cell-based.
Test [1] concerns CCRF-CEM. The test is described as follows: Cytotoxic activity against HIV infected T4 lymphocytes (CEM cell line). Format: functional, cell-based. The conditions noted are these: Homo sapiens.
In the next test the test system is PSN1. The test is described as follows: In vitro antitumor activity against PSN-1 human pancreatic carcinoma cells. Format: functional, cell-based.
The test system of the next test is A549. The test is described as follows: In vitro antitumor activity against A549 human NSCLC lung carcinoma cells. Type of test: functional, cell-based.
The test system of test [2] is CCRF-CEM. The test can be described thus: Antitumor activity against HIV infected T4 lymphocytes (CEM cell line) at 0.4 uM concentration. Format: functional, Homo sapiens.
Test [3] deals with CCRF-CEM. The test is described as follows: Cytotoxic activity against HIV uninfected T4 lymphocytes (CEM cell line). Type of test: functional, cell-based. The conditions noted are these: Homo sapiens.

Each structure is given as a SMILES string. Some results are limits rather than exact numbers.

Regarding `C/C(=C\Cc1ccc(C(N)=O)[nH]1)CCC(=O)O`, the IC50 (usually the point on the concentration scale where inhibition reaches its midpoint) is over 100 µM in the test on HT-29; over 100 µM in the test with MCF7; over 100 µM in the test on L1210; 730 µM in the test with CCRF-CEM [1]; over 100 µM in the test with PSN1; over 100 µM in the test on A549.

`COc1c(C)c2c(c(O)c1C/C=C(\C)CCC(=O)O)C(=O)OC2` [MYCOPHENOLIC ACID]: the IC50 in the test on HT-29 was 0.9 µM; in the test with MCF7, 0.5 µM; in the test on CCRF-CEM [3] it was 0.9 µM; in the test with L1210 it was under 0.2 µM; in the test with PSN1 it was 0.7 µM; in the test with A549, 0.4 µM. This compound also came in with a Protection in the test with CCRF-CEM [2] of 20%.

With `C/C(=C\Cn1cnc2c(Cl)ncnc21)CCC(=O)O`, the IC50 in the test with HT-29, in the test with MCF7, in the test with L1210, in the test with PSN1 and in the test on A549 was over 100 µM each time.

As to `C/C(=C\Cc1nc(C(N)=O)cs1)CCC(=O)O`, the IC50 in the test with HT-29, in the test on MCF7, in the test on L1210, in the test on PSN1 and in the test on A549 was over 100 µM throughout.

`C/C(=C\Cn1cnc2c(O)ncnc21)CCC(=O)O`: the concentration for half-maximal inhibition (IC50) in the test with HT-29, with MCF7, in the test on L1210, with PSN1 and with A549 was over 100 µM in each case.

For `COC(=O)c1ccc(C/C=C(\C)CCC(=O)O)[nH]1`, the half-inhibitory concentration (IC50) was over 100 µM with HT-29; over 100 µM with MCF7; over 100 µM with L1210; 360 µM with CCRF-CEM [1]; over 100 µM in the test on PSN1; over 100 µM in the test with A549.

For `C/C(=C\Cn1cnc(C(N)=O)n1)CCC(=O)O`, the IC50 in the test with HT-29, with MCF7, in the test on L1210, in the test on PSN1 and with A549 was over 100 µM each time.

In the case of `C/C(=C\Cc1cccc(C(N)=O)n1)CCC(=O)O`, the IC50 in the test with HT-29, in the test with MCF7, in the test with L1210, in the test with PSN1 and with A549 was over 100 µM in each case.

With `C/C(=C\Cn1cnc(C(=O)O)n1)CCC(=O)O`, the IC50 with HT-29, with MCF7, in the test with L1210, with PSN1 and in the test on A549 was over 100 µM throughout.
